# Source: paper PMC11435625, “In Vitro Hepatic Clearance Evaluations of Per- and Polyfluoroalkyl Substances (PFAS) across Multiple Structural Categories” (Toxics, 2024)
# Experiments:
# [1] = IVIVE: steady-state concentration (Css), generic HTTK model; parameters: species or system human; conditions: for Css (mg/L) / Css (uM): Assuming 1 mg/kg/day dose rate, BW 70 kg; for CLhep: QL 1500000 uL/min; for Fub: fub=fup/(B:P), Fub set to 1 if needed; for CLint: scaled to whole liver: HPGL 110 mill cells/g, Vl 1596 g
# Procedure: IVIVE was performed as previously described to calculate human steady-state concentrations (Css). Briefly, experimental plasma protein binding data presented elsewhere were transformed to fraction unbound in blood using blood-to-plasma partitioning values. Experimental Clint values generated here are used in conjunction with relevant liver scalars to scale up to estimate whole liver clearance. […] Once Css values were established, these were used with the PFAS-specific in vitro POD data to calculate the administered equivalent doses (AEDs) using reverse dosimetry. […] The fifth-percentile AC50 value was used to define the in vitro POD. All relevant inputs, scalars, and calculations are provided in Supplementary Information, as indicated in the results.
# [2] = system: pooled primary human hepatocyte suspensions; assay: Hepatic clearance assay (substrate depletion, LC-MS); conditions: in µL/min/10^6 cells; for CLint for HTTK: CLint value carried into HTTK/IVIVE; for in vitro CLint exp assay / Unadj Clint: pooled primary human hepatocyte suspensions; for Unadj Clint: unadjusted hepatic intrinsic clearance, Table S4
# Procedure: The rate of hepatic clearance was determined as previously described for a set of PFAS [11]. Analysis was conducted across two laboratories at the Division of Translational Toxicology (DTT) at the National Institute of Environmental Health Sciences (NIEHS) and the Center for Computational Toxicology and Exposure at the USEPA. The PFAS analyzed in each lab can be found in the Supplementary Materials.
# The hepatic clearance assay was performed at both the DTT and EPA laboratories as described below. The pooled human hepatocyte suspensions used in this work were purchased commercially and meet the ethical and scientific standards described in the Human Ethics Rule (40 CFR 26). The suspensions were prepared from hepatocytes obtained from de-identified donors by a commercial vendor.
# PFAS stock solutions prepared in DMSO were added to prewarmed William’s E medium to make a 2X working stock solution (2 µM). […] The working stock solutions were then transferred to a 96-well polypropylene plate and placed in an incubator at 37 °C with 5% carbon dioxide prior to adding cells. Cryopreserved pooled primary human hepatocyte suspensions (50-donor pool, mixed gender; BioIVT; Westbury, NY, USA) were thawed and transferred to vials containing hepatocyte thawing medium. After centrifuging for 5–10 min at 100× g, thawing medium was removed, being careful not to disturb the cell pellet. The primary human hepatocytes were then resuspended in pre-warmed complete Williams E medium to achieve a cell density of ~1.0 × 10^6 viable cells/mL as determined by Trypan Blue exclusion. Cells were then added to the 96-well incubation plates containing PFAS to achieve a final density of ~0.5 × 10^6 viable cells/mL and a 1 μM assay concentration (Ctest), then placed in incubator on a shaker at 300 rpm. Triplicate samples were removed from the incubator at time points ranging from 0 to 240 min and quenched with a total crash in 2–3 volumes of ice-cold acetonitrile. Samples were spun at 4000× g for 20 min, and supernatants were transferred to new tubes and stored at <−70 °C until analysis. Media-only (no cell) and/or heat-inactivated hepatocytes were included as negative controls for each chemical to evaluate and estimate chemical loss due to nonmetabolic processes (e.g., hydrolysis). Phenacetin was included in all runs as an assay reference compound; EPA also included propranolol as an additional reference compound.
# Assay samples were diluted in mobile phase and analyzed using a Thermo Vanquish UPLC system with a Thermo Hypersil Gold aQ C18 column (100 × 2.1 mm, 1.9 […], Thermo Fisher Scientific Inc.) coupled to a Q Exactive Plus mass spectrometer. Gradient elution was used in the chromatographic separations using water with 20 mM ammonium acetate (mobile phase A) and methanol (mobile phase B), with the following gradient program: 0.5–7 min, 30%–90% B; 7–8 min, 90% B; 8–9 min, 90%–30% B; and 9–10 min, 30% B. The first minute of each injection was diverted to waste to avoid introduction of excessive salts from incubation medium. Analysis was detected in negative ion mode. Samples were quantified against an external, matrix-matched calibration curve. Additional methodologic information is available in Table S2.
# To perform SPE, a positive-pressure manifold was employed along with Oasis WAX µElution plates and Oasis HLB 30 mg plates (Waters, Milford, MA, USA) for PFAS and positive-control extraction, respectively. […] The sorbent was then washed with 1% formic acid and water. Samples were eluted in 2% ammonia in methanol for analysis. Similarly, HLB plates were conditioned with methanol and water before sample was loaded onto the sorbent. The wells were then washed with 5% methanol in water and water before elution in methanol. For samples not undergoing SPE, the supernatant of the crashed assay sample was diluted in mobile phase prior to analysis. The first 1.5 min of the run was diverted to waste to prevent salt contamination.
# plasma protein = conditions: fraction unbound in plasma, input for IVIVE calculations; cited from earlier work
SMILES,Css (mg/L) [1] [mg/L],Css (uM) [1] [µM],CLhep [1] [L/h],Fub [1],CLint [1] [µL/min],CLint for HTTK [2],in vitro CLint exp assay [2],Mean fu (plasma protein),Unadj Clint [2]
O=C(O)CCC(F)(F)C(F)(F)C(F)(F)F,4.66,19.25,0.000,0.09418,0,0,0,0.0518,–
CCNS(=O)(=O)C(F)(F)C(F)(F)C(F)(F)C(F)(F)C(F)(F)C(F)(F)C(F)(F)C(F)(F)F,0.58,1.10,4.700,0.05255,1573018,8.96,8.96,0.0289,–
CNS(=O)(=O)C(F)(F)C(F)(F)C(F)(F)C(F)(F)C(F)(F)C(F)(F)C(F)(F)C(F)(F)F,0.58,1.13,4.921,0.02127,4078259,23.23,23.23,0.0117,–
O=C(Cl)C(F)(F)C(F)(F)C(F)(F)C(F)(F)C(F)(F)C(F)(F)C(F)(F)F,3584.17,8297.84,0.000,0.0001224,0,0,0,0.0001,–
O=S(=O)(Cl)C(F)(F)C(F)(F)C(F)(F)C(F)(F)C(F)(F)C(F)(F)C(F)(F)C(F)(F)F,41.78,80.68,0.000,0.0105,0,0,0.00,0.0109,–
O=C(O)C(F)(F)C(F)(F)OC(F)(F)F,3.16,13.74,0.000,0.1389,0,0,0,0.0764,–
O=C(O)C(F)(F)C(F)(F)C(F)(F)OC(F)(C(F)(F)F)C(F)(F)F,11.42,30.05,0.232,0.003818,1014737,5.78,5.78,0.0021,–
O=C(O)C(F)(F)C(F)(F)C(F)(F)OC(F)(F)F,6.16,22.00,0.335,0.02127,263340,1.5,1.5,0.0117,–
C[N+](C)(C)CCCNS(=O)(=O)C(F)(F)C(F)(F)C(F)(F)C(F)(F)C(F)(F)C(F)(F)C(F)(F)C(F)(F)F.[I-],19.15,31.97,0.000,0.02291,0,0,0,0.0126,4.28
O=S(=O)([O-])C(F)(F)C(F)(F)C(F)(F)C(F)(F)C(F)(F)C(F)(F)F.[K+],241.34,603.44,0.000,0.001818,0,0,0,0.001,–
O=S(=O)([O-])C(F)(F)C(F)(F)C(F)(F)C(F)(F)C(F)(F)C(F)(F)C(F)(F)C(F)(F)F.[K+],60.34,120.69,0.000,0.007273,0,0,2.96,0.004,–
"O=S(=O)(OCC(F)(F)F)C(F)(F)C(F)(F)C(F)(F)C(F)(F)F [2,2,2-Trifluoroethyl perfluorobutanesulfonate]",65.09,170.41,0.000,0.006742,0,0,0.00,0.0039,2.84
O=C(O)C(F)(F)C(F)(F)C(F)F [4H-Perfluorobutanoic acid],–,–,–,–,–,–,–,–,0.90
O=C(O)CCC(F)(F)C(F)(F)C(F)(F)C(F)(F)C(F)(F)C(F)(F)F [6:3 Fluorotelomer carboxylic acid],–,–,–,–,–,–,–,–,5.05
N.O=C(O)C(F)(F)C(F)(F)C(F)(F)C(F)(F)C(F)(F)C(F)(F)C(F)(F)F [Ammonium perfluorooctanoate],–,–,–,–,–,–,–,–,2.06
O=C(O)C(F)(F)C(F)(F)C(F)(F)OC(F)(F)F [Perfluoro(4-methoxybutanoic) acid],–,–,–,–,–,–,–,–,1.50
O=S(=O)(Cl)C(F)(F)C(F)(F)C(F)(F)C(F)(F)C(F)(F)C(F)(F)C(F)(F)C(F)(F)F [Perfluoro-1-octanesulfonyl chloride],–,–,–,–,–,–,–,–,0.00
"O=C(O)C(F)(F)OC(F)(F)C(F)(F)OC(F)(F)F [Perfluoro-3,6-dioxaheptanoic acid]",–,–,–,–,–,–,–,–,0.00
O=C(O)C(F)(F)C(F)(F)C(F)(F)F [Perfluorobutanoic acid],–,–,–,–,–,–,–,–,0.08
O=C(O)C(F)(F)C(F)(F)F [Perfluoropropanoic acid],–,–,–,–,–,–,–,–,0.59
O=C(O)C(F)(F)C(F)(F)C(F)(F)C(F)(F)C(F)(F)C(F)(F)C(F)(F)C(F)(F)C(F)(F)C(F)(F)C(F)(F)C(F)(F)C(F)(F)F [Perfluorotetradecanoic acid],–,–,–,–,–,–,–,–,0.00
O=C(O)C(F)(F)C(F)(F)C(F)(F)C(F)(F)C(F)(F)C(F)(F)C(F)(F)C(F)(F)C(F)(F)C(F)(F)F [Perfluoroundecanoic acid],–,–,–,–,–,–,–,–,0.00
O=S(=O)([O-])C(F)(F)C(F)(F)C(F)(F)C(F)(F)F.[K+] [Potassium perfluorobutanesulfonate],–,–,–,–,–,–,–,–,0.00
O=S(=O)([O-])C(F)(F)C(F)(F)C(F)(F)C(F)(F)C(F)(F)C(F)(F)C(F)(F)C(F)(F)F.[K+] [Potassium perfluorooctanesulfonate],–,–,–,–,–,–,–,–,2.96
O=C([O-])C(F)(F)C(F)(F)C(F)(F)C(F)(F)C(F)(F)C(F)(F)C(F)(F)F.[K+] [Potassium perfluorooctanoate],–,–,–,–,–,–,–,–,0.00
O=S(=O)([O-])C(F)(F)C(F)(F)C(F)(F)C(F)(F)C(F)(F)C(F)(F)C(F)(F)C(F)(F)C(F)(F)C(F)(F)F.[Na+] [Sodium perfluorodecanesulfonate],–,–,–,–,–,–,–,–,3.39
O=C(O)C(F)(F)C(F)(F)C(F)(F)C(F)(F)C(F)(F)C(F)(F)C(F)(F)F [Sodium perfluorooctanoate],–,–,–,–,–,–,–,–,2.34
